Laboratory results from PMC8032764 (Scientific Reports, 2021).
Like-named read-outs stand apart in the source and are kept apart here.

Tests used:
[1] = system: T1, Muscarinic M4; assay: Cerep binding; design: species or system human; conditions: 10 μM; [3H]4-DAMP; hum. recomb. (CHO)
T1 construct: host or cells: CHO

[2] = system: Purinergic P2Y; assay: Cerep binding; conditions: 10 μM; [35S]dATPαS; rat cerebral cortex
[3] = biological target: T2, GABAA-α5 receptors (Homo sapiens, UniProt P18507+P31644); assay: [11C]-Ro 15-4513 PET receptor occupancy study in healthy volunteers; type: in vivo; conditions: for EC50: Emax model, nine subjects
T2 construct: occupancy at the GABAA-α5 subunit-containing receptors in the human brain after oral dosing; from tissue; host or cells: brain of healthy human volunteers, in vivo PET
T2 sequence (P31644 32-462): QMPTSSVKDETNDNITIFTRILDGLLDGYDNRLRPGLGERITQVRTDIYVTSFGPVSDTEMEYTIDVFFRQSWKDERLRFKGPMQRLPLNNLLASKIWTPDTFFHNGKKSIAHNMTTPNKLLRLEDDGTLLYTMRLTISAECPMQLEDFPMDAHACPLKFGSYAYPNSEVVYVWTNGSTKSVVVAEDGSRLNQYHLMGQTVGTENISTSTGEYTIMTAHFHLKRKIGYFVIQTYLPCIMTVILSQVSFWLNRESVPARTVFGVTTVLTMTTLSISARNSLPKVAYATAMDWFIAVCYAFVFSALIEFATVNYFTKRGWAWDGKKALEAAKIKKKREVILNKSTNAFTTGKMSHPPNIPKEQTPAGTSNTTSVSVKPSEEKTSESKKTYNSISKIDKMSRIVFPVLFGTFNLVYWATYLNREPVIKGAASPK
T2 sequence (P18507 40-467 limits assumed): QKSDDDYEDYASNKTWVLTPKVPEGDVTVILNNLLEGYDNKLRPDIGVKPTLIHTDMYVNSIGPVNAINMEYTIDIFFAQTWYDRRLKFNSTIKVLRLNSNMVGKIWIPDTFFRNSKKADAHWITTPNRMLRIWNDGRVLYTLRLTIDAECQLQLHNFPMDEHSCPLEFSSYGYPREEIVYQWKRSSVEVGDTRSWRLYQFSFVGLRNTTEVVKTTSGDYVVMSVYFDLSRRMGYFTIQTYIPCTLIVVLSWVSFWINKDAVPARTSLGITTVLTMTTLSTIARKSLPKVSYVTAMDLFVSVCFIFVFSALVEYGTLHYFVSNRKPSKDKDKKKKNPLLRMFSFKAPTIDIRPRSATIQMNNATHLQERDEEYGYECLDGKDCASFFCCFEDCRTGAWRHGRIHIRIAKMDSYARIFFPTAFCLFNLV
T2 sequence (P28472 26-473 partner): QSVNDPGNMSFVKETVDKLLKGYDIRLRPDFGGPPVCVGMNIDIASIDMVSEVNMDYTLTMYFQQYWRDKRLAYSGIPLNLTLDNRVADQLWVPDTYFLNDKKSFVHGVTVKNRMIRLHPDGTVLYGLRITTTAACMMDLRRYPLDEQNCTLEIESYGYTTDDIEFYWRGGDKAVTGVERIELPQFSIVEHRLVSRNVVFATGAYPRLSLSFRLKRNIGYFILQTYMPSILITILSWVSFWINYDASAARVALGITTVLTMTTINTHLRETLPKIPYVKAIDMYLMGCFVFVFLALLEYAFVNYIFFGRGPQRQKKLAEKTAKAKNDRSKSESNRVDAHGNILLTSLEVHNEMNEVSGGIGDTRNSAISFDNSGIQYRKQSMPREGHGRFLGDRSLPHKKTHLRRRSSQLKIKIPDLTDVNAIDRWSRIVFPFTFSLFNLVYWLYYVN
Description: The PET study was undertaken as part of Protocol BP25611 and after four protocol amendments was described as: “A single-center, single blind molecular and functional imaging study to assess GABAA-α5 receptor expression, occupancy and functional connectivity in the brains of individuals with Down syndrome and healthy controls following a single oral administration of RO5186582 or placebo”. Full details of the protocol can be found in the Supplementary Information. The study was registered on August 17, 2012 with clinicaltrials.gov identifier NCT01667367.
Subjects returned for a follow-up visit approximately 7 to 10 days after their last dose of study medication.
The study was single-blind, i.e., subjects were blinded to dose. Blood sampling was performed at four different timepoints starting 30 min before the post dose PET scan.
Tissue time activity curves were analyzed using the simplified reference tissue model (SRTM[71]), with a basis pursuit implementation of the SRTM[72], to directly estimate the binding potential (BPND) in all target regions. […] Therefore, the time-activity curve derived from the cerebellum was used as an input for SRTM analysis.
Occupancy in scan 2 was estimated as a fractional reduction in the relevant baseline BPND (see Eq. (3)).3 Occ=BPNDBaseline-BPNDBasmisanil/BPNDBaseline.
The pharmacokinetic/pharmacodynamic population for GABAA-α5 receptor occupancy consisted of data from 9 subjects.

[4] = subject 11010, 40 mg, 3.75 h prior to scan
[5] = subject 11020, 160 mg, 3.12 h prior to scan
[6] = subject 11021, 160 mg, 3.00 h prior to scan
[7] = subject 13010, 40 mg, 2.63 h prior to scan
[8] = subject 13030, 1000 mg, 4.75 h prior to scan
[9] = subject 13031, 1000 mg, 4.77 h prior to scan
[10] = subject 13040, 20 mg, 1.48 h prior to scan
[11] = subject 13041, 20 mg, 2.20 h prior to scan
[12] = subject 13050, 80 mg, 2.43 h prior to scan

Cc1onc(-c2ccc(F)cc2)c1COc1ccc(C(=O)N2CCS(=O)(=O)CC2)cn1 [basmisanil]
% Inhibition [1]: -4%
% Inhibition [2]: 9%
EC50 ([3]; read-out: EC50 of receptor occupancy, free plasma concentration): 0.067 µM
EC50 ([3]; read-out: EC50 of receptor occupancy, total plasma concentration (converted)): ~1.21 µM
Receptor occupancy, Accumbens [3, 4]: 52.1%
Receptor occupancy, Amygdala [3, 4]: 53.5%
Receptor occupancy, Anterior cingulate [3, 4]: 44.8%
Receptor occupancy, Hippocampus [3, 4]: 48.4%
Receptor occupancy, Insular cortex [3, 4]: 44.6%
Receptor occupancy, Mean [3, 4]: 48.68%
Receptor occupancy, Accumbens [3, 5]: 86.6%
Receptor occupancy, Amygdala [3, 5]: 91.4%
Receptor occupancy, Anterior cingulate [3, 5]: 75.6%
Receptor occupancy, Hippocampus [3, 5]: 87.2%
Receptor occupancy, Insular cortex [3, 5]: 75.2%
Receptor occupancy, Mean [3, 5]: 83.2%
Receptor occupancy, Accumbens [3, 6]: 87.0%
Receptor occupancy, Amygdala [3, 6]: 85.4%
Receptor occupancy, Anterior cingulate [3, 6]: 76.4%
Receptor occupancy, Hippocampus [3, 6]: 85.9%
Receptor occupancy, Insular cortex [3, 6]: 77.2%
Receptor occupancy, Mean [3, 6]: 82.38%
Receptor occupancy, Accumbens [3, 7]: 37.3%
Receptor occupancy, Amygdala [3, 7]: 40%
Receptor occupancy, Anterior cingulate [3, 7]: 32.7%
Receptor occupancy, Hippocampus [3, 7]: 41.3%
Receptor occupancy, Insular cortex [3, 7]: 32%
Receptor occupancy, Mean [3, 7]: 36.66%
Receptor occupancy, Accumbens [3, 8]: 89.5%
Receptor occupancy, Amygdala [3, 8]: 93.1%
Receptor occupancy, Anterior cingulate [3, 8]: 79.1%
Receptor occupancy, Hippocampus [3, 8]: 94.2%
Receptor occupancy, Insular cortex [3, 8]: 79.9%
Receptor occupancy, Mean [3, 8]: 87.16%
Receptor occupancy, Accumbens [3, 9]: 93.7%
Receptor occupancy, Amygdala [3, 9]: 97.4%
Receptor occupancy, Anterior cingulate [3, 9]: 82.1%
Receptor occupancy, Hippocampus [3, 9]: 94.9%
Receptor occupancy, Insular cortex [3, 9]: 82.2%
Receptor occupancy, Mean [3, 9]: 90.06%
Receptor occupancy, Accumbens [3, 10]: 29.6%
Receptor occupancy, Amygdala [3, 10]: 30.9%
Receptor occupancy, Anterior cingulate [3, 10]: 26.2%
Receptor occupancy, Hippocampus [3, 10]: 26.8%
Receptor occupancy, Insular cortex [3, 10]: 26.7%
Receptor occupancy, Mean [3, 10]: 28.04%
Receptor occupancy, Accumbens [3, 11]: 31.8%
Receptor occupancy, Amygdala [3, 11]: 34.7%
Receptor occupancy, Anterior cingulate [3, 11]: 31.7%
Receptor occupancy, Hippocampus [3, 11]: 35.8%
Receptor occupancy, Insular cortex [3, 11]: 31.7%
Receptor occupancy, Mean [3, 11]: 33.14%
Receptor occupancy, Accumbens [3, 12]: 64.2%
Receptor occupancy, Amygdala [3, 12]: 63.5%
Receptor occupancy, Anterior cingulate [3, 12]: 55.8%
Receptor occupancy, Hippocampus [3, 12]: 63%
Receptor occupancy, Mean [3, 12]: 60.86%
